Source: USRE37950E1, “Biogradable in-situ forming implants and methods of producing the same” (priority 1990, dated 2002)

Columns and labels:
[1] = Release of drug from polymer/NMP formulation injected into dialysis tube, placed in pH 7 Sorenson's buffer receiving fluid at 37° C., UV at 237 nm; assay type: physicochemical; settings: for cumulative fraction of drug released: Example 1: 2% by weight SaCl dispersion in DL-PLA oligomer/NMP 68:32
[2] = Concentration of SaCl in crevicular fluid from periodontal pocket of a greyhound dog (Periostrips, Periotron, liquid chromatograph); settings: other: inserted into the periodontal pocket

## C[n+]1cc2c3c(ccc2c2ccc4cc5c(cc4c21)OCO5)OCO3 [SaCl, Sanguinarine chloride]
[1]; after 2 days
  cumulative fraction of drug released: ~72%
[1]; after 5 days
  cumulative fraction of drug released: ~85%
[1]; after 9 days
  cumulative fraction of drug released: ~90%
[1]; after 14 days
  cumulative fraction of drug released: ~97%
[1]; first day
  cumulative fraction of drug released: Approximately 60%
[1]; Example 3: 1.5% by weight SaCl dispersion in 40% by weight poly(DL-lactide) (MW 2,000) in NMP, after 2 days
  drug released: ~40%
[1]; Example 3: 1.5% by weight SaCl dispersion in 40% by weight poly(DL-lactide) (MW 2,000) in NMP, after 5 days
  drug released: ~45%
[1]; Example 3: 1.5% by weight SaCl dispersion in 40% by weight poly(DL-lactide) (MW 2,000) in NMP, after 15 days
  drug released: ~50%
[1]; Example 3: 1.5% by weight SaCl dispersion in 40% by weight poly(DL-lactide) (MW 2,000) in NMP, after the first day
  drug released: approximately 32%
[1]; Example 6: 2% by weight SaCl dispersion in 70% by weight 50:50 DL-PLG (MW 1500) in NMP, after 2 days
  drug released: approximately 7%
[1]; Example 6: 2% by weight SaCl dispersion in 70% by weight 50:50 DL-PLG (MW 1500) in NMP, after 5 days
  drug released: ~10%
[1]; Example 6: 2% by weight SaCl dispersion in 70% by weight 50:50 DL-PLG (MW 1500) in NMP, after 7 days
  drug released: ~12%
[1]; Example 6: 2% by weight SaCl dispersion in 70% by weight 50:50 DL-PLG (MW 1500) in NMP, after 14 days
  drug released: ~16%
[2]
  concentration at 3 days: 63.2 µg/mL
  concentration at 7 days: 80.2 µg/mL
  concentration at 10 days: 67.8 µg/mL
  concentration at 14 days: 70.5 µg/mL

## CCOC1c2c(ccc3c2OCO3)-c2ccc3cc4c(cc3c2N1C)OCO4 (stereo not shown) [SaEt, Ethoxydihydrosanguinarine]
[1]; Example 2: SaEt dissolved in DL-PLA oligomer/NMP solution of Example 1, after 2 days
  drug released: ~52%
[1]; Example 2: SaEt dissolved in DL-PLA oligomer/NMP solution of Example 1, after 5 days
  drug released: ~60%
[1]; Example 2: SaEt dissolved in DL-PLA oligomer/NMP solution of Example 1, after 9 days
  drug released: ~70%
[1]; Example 2: SaEt dissolved in DL-PLA oligomer/NMP solution of Example 1, after 14 days
  drug released: ~80%
[1]; Example 2: SaEt dissolved in DL-PLA oligomer/NMP solution of Example 1, after the first day
  drug released: approximately 45%
[1]; Example 4: 1.5% by weight SaEt solution in 40% by weight DL-PLA (MW 2,000) in NMP, after 2 days
  drug released: ~14%
[1]; Example 4: 1.5% by weight SaEt solution in 40% by weight DL-PLA (MW 2,000) in NMP, after 5 days
  drug released: ~20%
[1]; Example 4: 1.5% by weight SaEt solution in 40% by weight DL-PLA (MW 2,000) in NMP, after 9 days
  drug released: ~23%
[1]; Example 4: 1.5% by weight SaEt solution in 40% by weight DL-PLA (MW 2,000) in NMP, after 14 days
  drug released: ~28%
[1]; Example 4: 1.5% by weight SaEt solution in 40% by weight DL-PLA (MW 2,000) in NMP, after the first day
  drug released: approximately 8%
[1]; Example 7: 2% by weight SaEt solution in 70% by weight 50:50 DL-PLG in NMP
  release rate: identical to that for SaCl described in Example 6
